In ChEMBL document CHEMBL3507680, “University of Dundee, Gates Library screen for HepG2 cell viability”:

Assay: Human HepG2 cell viability assay in 384 well format
Type: toxicity, cell-based
Design: dose 125 nL, time 70.5 hour; concentration not given beside the values
Details: HepG2 cells, read-out: Inhibition

Row | Structure (SMILES) | cytotoxicity at 70.5 h [%]
1 | O=C(NCCCn1nc2ccccn2c1=O)NCc1ccccc1 | -0.996
2 | Cc1csc(N2CCCN(C(=O)CCNc3ncccn3)CC2)n1 | -0.695
3 | CCCS(=O)(=O)NC(C)C(=O)NCc1ccc(N2CCN(C)CC2)nc1 (configuration not stated) | -2.17
4 | Cc1ccn2ncc(C(=O)N3CCCC(n4cccn4)C3)c2n1 (configuration not stated) | -0.891
5 | COCCOc1cc(C)ccc1NC(=O)N(C)Cc1cnn(C)c1 | -13.2
6 | COc1ccccc1CC(=O)N1CCCC1Cn1nc(C)cc1C (configuration not stated) | -2.44
7 | CC(C)C(=O)NCc1ccc(N2CCCC2)nc1 | -3.37
8 | Cc1cccc(C)c1OCC(=O)N1CCOCC1c1ncon1 (configuration not stated) | -2.55
9 | Cc1ccc(OCCC(=O)N2CCOCC2c2ncon2)cc1C (configuration not stated) | -7.26
10 | CC(C)c1nc(CN2CCCC(Cn3cncn3)C2)cs1 (configuration not stated) | 29.1
11 | Cn1cc(C2CCCN2CCC(=O)N2CCc3sccc3C2)cn1 (configuration not stated) | -4.52
12 | C1CCCN(CC2CCCN(Cc3noc(C4CC4)n3)C2)CC1 (configuration not stated) | 0.15
13 | C1CCCN(C2CCCN(Cc3noc(C4CC4)n3)C2)CC1 (configuration not stated) | -1.66
14 | O=C(CCN1CCCC1c1cccc(F)c1)N1CCc2sccc2C1 (configuration not stated) | 0.336
15 | Cc1ccccc1OCC(=O)N1CCN(C2CCOC2=O)CC1 (configuration not stated) | 0.726
16 | CCn1nc2c(cc1=O)CN(Cc1coc(-c3ccccc3)n1)CC2 | -3.27
17 | COCCOc1ncccc1C(=O)N1CCCCC1c1nccs1 (configuration not stated) | -3.02
18 | COCCOc1cccc(C(=O)N2CCCCC2c2nccs2)c1 (configuration not stated) | -3.68
19 | O=C(NCCNc1ncccn1)N1CCCC1 | -0.644
20 | O=C1OCCC1N1CCN(C(=O)Cc2ccccc2Cl)CC1 (configuration not stated) | -0.257
21 | O=C(NCCOCC(F)(F)F)c1ccc(-c2ccccc2)[nH]c1=O | -7.3
22 | Cc1cc(C2CCCN2CCC(=O)N2CCc3sccc3C2)no1 (configuration not stated) | 1.59
23 | COCc1ccc(CNCc2c(C)nn(C)c2N(C)C)cc1 | 24.1
24 | Cn1nc2c(cc1=O)CN(Cc1coc(-c3ccccc3)n1)CC2 | 0.822

Row | Structure (SMILES) | cytotoxicity at 70.5 h [%]
25 | Cc1csc(C2CCCCN2C(=O)c2cc(Cl)c[nH]2)n1 (configuration not stated) | -0.326
26 | CC(C)(C)OC(=O)NCCNC(=O)c1ccc(-c2ccco2)[nH]c1=O | -0.98
27 | O=C(c1ccc2c(c1)OCCCO2)N1CCCC(n2cccn2)C1 (configuration not stated) | 0.26
28 | CCc1nc2n(n1)CC(NCc1nnc(C(C)C)o1)CC2 (configuration not stated) | 19.3
29 | CC(NC(=O)CCOc1cccc(F)c1)c1nnc2n1CCC2 (configuration not stated) | -2.58
30 | CC(NC(=O)Nc1cccnc1N1CCCC1)c1ccncc1 (configuration not stated) | 0.728
31 | N#Cc1cccc(CNC(=O)Nc2cccnc2N2CCCC2)c1 | -1.72
32 | COc1ncccc1CNC(=O)Nc1cccnc1N1CCCC1 | 5.6
33 | O=C(NCc1cccnc1-n1cncn1)c1ccc2c(c1)CCO2 | -1.03
34 | Cc1cnn(CC2CN(Cc3nc(-c4cccnc4)no3)CCO2)c1 (configuration not stated) | -0.171
35 | CC(C)c1nc2n(n1)CC(NCc1nnc(C3CC3)o1)CC2 (configuration not stated) | 0.876
36 | CCc1nnc(CNC2CCc3nc(C(C)C)nn3C2)o1 (configuration not stated) | 0.155
37 | OCCN1CCN(CC(O)c2ccc(OC(F)(F)F)cc2)CC1 (configuration not stated) | -2.1
38 | Cc1nn(C)c(C)c1C1CCCN1CC(=O)Nc1ccc(Cl)cn1 (configuration not stated) | 2.19
39 | Cc1cnn(CCC(=O)N2CCCC(c3nc(C)c(C)s3)C2)c1 (configuration not stated) | 1.92
40 | Cc1cc(C)n(CCC(=O)N2CCCC(c3cc(C(N)=O)[nH]n3)C2)n1 (configuration not stated) | 29.3
41 | Cc1ccccc1CCC(=O)N1CCCC(c2cc(C(N)=O)[nH]n2)C1 (configuration not stated) | 6.15
42 | COCCOc1ccccc1C(=O)N1CCCC(c2cc(C)[nH]n2)C1 (configuration not stated) | 0.71
43 | CC(NC(=O)Nc1cccnc1N1CCCC1)c1ccn(C)c1 (configuration not stated) | 25
44 | CCCC(=O)N1CCN(CC(O)COCC)CC1 (configuration not stated) | 1.27
45 | Cc1ccc(N2CCCC(NCc3ccc4c(c3)CCO4)C2)nn1 (configuration not stated) | 4.47
46 | Cc1cnn(CCC(=O)N2CCCC(c3ccn[nH]3)C2)c1 (configuration not stated) | -1.8
47 | CC(=O)NCCNC(=O)CN1CCCC1c1c(C)nn(C)c1C (configuration not stated) | 25.7
48 | CCOCC(O)CN1CCN(C(=O)C2CCC2)CC1 (configuration not stated) | -3.91

Row | Structure (SMILES) | cytotoxicity at 70.5 h [%]
49 | CN(C)c1ncccc1CNC(=O)NCCN(C)C1CCCC1 | -0.0535
50 | CN(Cc1coc(-c2ccccc2)n1)C1CCCN(c2cccnn2)C1 (configuration not stated) | -7.45
51 | CC(C)n1cnnc1C1CCCN(C(=O)COCc2ccccc2)C1 (configuration not stated) | -5.17
52 | Cc1nc(C)n(C2CCCN(C(=O)Cc3csc(C(C)C)n3)C2)n1 (configuration not stated) | -3.36
53 | CN1N=C(C(=O)N2CCCC(n3ccnc3)C2)CCC1=O (configuration not stated) | -7.88
54 | C1CC(c2noc(C3CC3)n2)N(Cc2nc(C3CC3)no2)C1 (configuration not stated) | -10.7
55 | CC(C)c1nccn1C1CCCN(C(=O)C2=NN(C)C(=O)CC2)C1 (configuration not stated) | -10.1
56 | COc1cccc(CC(=O)N2CCCC(c3nncn3C)C2)c1 (configuration not stated) | -12.3
57 | Cc1cc(NC(=O)NCc2cccnc2OC(C)C)no1 | -0.0866
58 | CS(=O)(=O)NCC1CCCN(C(=O)c2cccc(F)c2)C1 (configuration not stated) | -6.44
59 | CC(Cn1cccn1)NC(=O)N1CCCN(Cc2cccs2)CC1 (configuration not stated) | -5.76
60 | CC(Cn1cccn1)NC(=O)Cc1cccs1 (configuration not stated) | -6.09
61 | CC(NC(=O)N1CCN(CCc2ccccc2)CC1)c1nncn1C (configuration not stated) | -11
62 | COc1cc(C(=O)N2CCCS2(=O)=O)cc(Cl)c1OC | -9.28
63 | COc1cc(C(=O)N2CCCS2(=O)=O)ccc1C | 18.4
64 | CC(NC(=O)N1CCC(OCc2ccccc2)CC1)c1nncn1C (configuration not stated) | -11.3
65 | CCn1cnnc1CNC(=O)N1CCC(C(=O)NC)CC1 | 1.9
66 | CC(NC(=O)c1cc(Br)c2c(c1)OCCO2)C(N)=O (configuration not stated) | 16.6
67 | Cc1ccc(C(O)CNCCn2cccn2)cc1C (configuration not stated) | -3.19
68 | CNc1snc(C)c1C(=O)N1CCCC(n2nc(C)cc2C)C1 (configuration not stated) | 23.1
69 | CC(C)c1nc(C2CCCN2CC(=O)Nc2ccc(Cl)cn2)no1 (configuration not stated) | 19.2
70 | COc1cccc(CNc2cnn(C)c(=O)c2Cl)c1 | 3.02
71 | O=C(c1cc(Cl)c2c(c1)OCO2)N1CCCC(n2ccnc2)C1 (configuration not stated) | -8.93
72 | CCc1noc(C(C)N2CCN(Cc3nnc(C4CC4)o3)CC2)n1 (configuration not stated) | -14.9

Row | Structure (SMILES) | cytotoxicity at 70.5 h [%]
73 | Cc1nc(C)n(CC2CN(CCOCC(F)(F)F)CCO2)n1 (configuration not stated) | -17.5
74 | Cc1cc(NC(=O)CN2CCCC2c2noc(C(C)C)n2)n(C)n1 (configuration not stated) | -7.61
75 | c1ccc(-c2nc(CN3CCCC(Cn4cncn4)C3)co2)cc1 (configuration not stated) | 17.2
76 | Cc1cnn(CCNCc2ccccc2Oc2cccnc2)c1 | 28.3
77 | Cc1cc(NC(=O)NCc2cccnc2OC(C)C)n(C)n1 | -6.35
78 | CCN(Cc1nc2c(cnn2C)c(=O)[nH]1)c1ccc(OC)c(OC)c1 | -7.15
79 | Cc1nc(CNC(C)c2ccc(OCC(=O)NC3CC3)cc2)cs1 (configuration not stated) | 3.83
80 | CC(NCc1ccc(F)cc1)c1ccc(OCC(=O)NC2CC2)cc1 (configuration not stated) | 25.6
81 | COc1ccc(CN(C)Cc2nc3c(cnn3C)c(=O)[nH]2)cc1OC | -6.1
82 | Cc1cc(NC(=O)NCc2ccccn2)n(C)n1 | -6.19
83 | CC(Cc1c(F)cccc1F)NC(=O)Nc1cnn(CC(N)=O)c1 (configuration not stated) | -3.56
84 | O=C(Cc1ccccc1)N1CCN(Cc2noc(C3CC3)n2)CC1 | -1.85
85 | Cc1nnc2n1CCN(C(=O)COCCOc1ccccc1)C2 | -1.96
86 | Cc1cnn(CC(C)NCc2ccc(OCc3ccncc3)cc2)c1 (configuration not stated) | 30.2
87 | CCN1CCC(NC(=O)CN2CCCC2Cn2cncn2)CC1 (configuration not stated) | -2.95
88 | Cc1cnn(CC2CCCCN2CC(=O)Nc2c(C)n[nH]c2C)c1 (configuration not stated) | -5.21
89 | COc1ccc(C(=O)N2CCC(Nc3ccc(C)nn3)CC2)c(F)c1 | -6.97
90 | c1ccc(-n2cc(CN3CCCC(Cn4cncn4)C3)nn2)cc1 (configuration not stated) | -7.1
91 | Cc1cc(C(=O)N2CCc3nnc(N)cc3C2)c(C)n1C1CC1 | -12.1
92 | O=C(O)c1cc(S(=O)(=O)Nc2ccc(Cl)cc2)cc2c1OCCO2 | -10.1
93 | Cc1nc(C)n(CC2CN(c3ncnc4[nH]ccc34)CCO2)n1 (configuration not stated) | 1.75
94 | Cc1ncccc1CNCC1CCN(CC(O)c2ccccc2)CC1 (configuration not stated) | -1.3
95 | Cc1nc(C2CCCN(C(=O)c3ccco3)C2)no1 (configuration not stated) | 24
96 | Cc1cc(C(=O)N2CCc3nnc(N(C)C)cc3C2)c(C)n1C1CC1 | -3.63

Row | Structure (SMILES) | cytotoxicity at 70.5 h [%]
97 | CC(C)(C)OC(=O)N1CCN(C(=O)c2sccc2C2CC2)CC1 | -10
98 | CSc1ccsc1C(=O)N1CCN(CC(C)(C)O)CC1 | -0.902
99 | Cc1cnn(CC(C)NCc2csc(-c3cnn(C)c3)n2)c1 (configuration not stated) | 51.9
100 | COC(=O)C(c1cc(F)ccc1F)N(C)C(=O)c1csnn1 (configuration not stated) | 7.84
101 | COC(=O)N1CCCN(C(=O)NCc2ccc(Cl)s2)CC1 | 10.1
102 | CCn1cnnc1CNC(=O)c1cc(Cl)ccc1OC | -4.87
103 | CCc1cccc(N2CCC(NC(=O)c3ccc(=O)[nH]n3)CC2)c1 | -0.843
104 | COCc1nc(C(=O)N2CCCC2c2ccccc2C)cs1 (configuration not stated) | -1.48
105 | Cc1ccoc1C(=O)NC1CCN(Cc2cccc3c2OCCO3)CC1 | 6.48
106 | COc1ccc(Br)c(C(=O)N2CCC(c3n[nH]c(C4CC4)n3)CC2)c1 | 3.76
107 | O=C(CCCNc1ncccn1)N1CCCC(n2cccn2)C1 (configuration not stated) | 34.1
108 | COCCN1CCC(CNC(=O)C2(c3cccc(C)c3)CC2)CC1 | -4.42
109 | CCC(=O)NC1CCN(c2cccc(CC)c2)CC1 | 38.9
110 | Cc1cnn(CC(C)NCc2csc(-c3ccco3)n2)c1 (configuration not stated) | 4.15
111 | COC(=O)C(c1cc(F)ccc1F)N(C)C(=O)c1cccnc1O (configuration not stated) | 0.116
112 | Cc1cc(C)n(CC2CCCN2C(=O)c2ccc(C(N)=O)cn2)n1 (configuration not stated) | -1.95
113 | Cc1cc(C(=O)N2CCN(C(=O)Cc3ccccn3)CC2)c(C)s1 | 0.259
114 | Cc1nn(C)c(C)c1CNCc1ccnc(N2CCOCC2)c1 | 31.5
115 | CC(=O)N1CCCN(C(=O)NCCc2cc(Cl)cc(Cl)c2)CC1 | -6.77
116 | COCc1nc(C(=O)N2CCCC2c2noc(C(C)C)n2)cs1 (configuration not stated) | -0.699
117 | COc1ccc(CCNCc2c(C)nn(C)c2N(C)C)cc1OC | -1.22
